Results from patent publication US8242118B2, “Arylsulfonamide derivatives for use as CCR3 antagonists in the treatment of inflammatory and immunological disorders” (Axikin Pharmaceuticals Inc., priority 2001, dated 2012).
pIC50: −log10 of the molar value. Where a name gives a salt, the structure may show the parent alone.

Experiments:
Human CCR3 = target: T1, Human CCR3 (Homo sapiens, UniProt P51677); assay: Calcium mobilization assay, eotaxin-stimulated; assay type: cell-based; settings: human CCR3-transformed K562 cells, 10 nM eotaxin; compounds of about 40 to 90% purity; read-out: Activity grade Ca2+ (IC50 class)
T1 construct: The cloned CCR3 cDNA was constructed with pcDNA3 vector and transfected into a IC562 cell line; expressed in transfected cells
T1 sequence (P51677 1-355): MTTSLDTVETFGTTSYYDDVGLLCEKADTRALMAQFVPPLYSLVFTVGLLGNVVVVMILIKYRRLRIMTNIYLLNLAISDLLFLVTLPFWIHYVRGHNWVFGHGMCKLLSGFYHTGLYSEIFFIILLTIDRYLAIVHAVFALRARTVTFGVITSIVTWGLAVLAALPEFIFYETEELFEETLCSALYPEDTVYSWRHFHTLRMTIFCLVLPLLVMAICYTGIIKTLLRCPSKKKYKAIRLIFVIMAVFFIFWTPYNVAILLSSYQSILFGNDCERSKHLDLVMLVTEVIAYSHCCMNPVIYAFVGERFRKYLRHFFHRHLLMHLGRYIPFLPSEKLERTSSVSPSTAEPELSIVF
Experimental: • Human CCR3-transformed K562 cells were used. The cloned CCR3 cDNA was constructed with pcDNA3 vector and transfected into a IC562 cell line. The human CCR3-transformed K562 cells were maintained in RPMI-1640 (Cat.#22400-089, Life Technologies) supplemented with 10% FCS (Cat.#A-1115-L, Hyclone), 55 μM 2-mercaptoethanol (Cat.#21985-023, Life Technologies), 1 mM sodium pyruvate (Cat.#11360-070, Life Technologies), 100 units/ml of penicillin G and 100 μg/ml of streptomycin (Cat.#15140-122, Life Technologies), and 0.4 mg/ml of Geneticin (Cat.#10131-035, Life Technologies)(hereinafter called “culture medium”). Before the receptor binding assay, cells were pretreated with 5 mM sodium butyrate (Cat.#193-01522, Wako)-containing the culture medium (2×10^5 cells/ml) for 20-24 hours to increase the expression of CCR3. (2) Receptor Binding Assay (RBA) • Butyrate-pretreated cells, suspended in binding buffer (25 mM HEPES pH 7.6, 1 mM CaCl2, 5 mM MgCl2, 0.5% BSA, 0.1% NaN3) at a cell density of 2×10^6 cells/ml, were added into 60 μl/well in the 96-well round bottom polypropylene plate (Cat.#3365, Costar). Compounds, diluted with the binding buffer (4-times higher concentration of the final concentration), were added into 30 μl/well in the polypropylene plate. [^125I]-labeled human eotaxin (Cat.#IM290, Amersham Pharmacia Biotech), diluted with the binding buffer at the concentration of 0.4 nM (final concentration; 0.1 nM), was added into 30 μl/well in the polypropylene plate. Total 120 μl/well of binding reaction mixture (60 μl/well of cell suspension, 30 μl/well of compound solution, and 30 μl/well of [^125I]-labeled eotaxin) were incubated in the polypropylene plate for 1 hour at room temperature after the incubation, 100 μl/well of the reaction mixture was transferred to a filtration plate (Cat.#MAFB-N0B, Millipore), and washed with the washing buffer (25 mM HEPES pH 7.6, 1 mM CaCl2, 5 mM MgCl2, 0.5% BSA, 0.1% NaN3, 0.5 M NaCl) twice. The 96-well filtration plate was pretreated with 100 μl/well of 0.5% polyethylenimine (Cat.#P-3143, Sigma) for 2-4 hours at room temperature and washed with the washing buffer twice before use. The non-specific binding was determined by parallel incubation in the presence of 500 nM of non-labeled eotaxin (Cat.#23209, Genzyme Techne). The radioactivities remained on the filter were measured by liquid scintillation counter (TopCount™, Packard) after an addition of 45 μl/well of scintillant (Microscint20, Cat.#6013621, Packard). The inhibition percent at each concentration of compound was calculated, and IC50 values were determined from the inhibition curve. [Determination of IC50 Values of Compounds in Calcium Mobilization Assay] (IC50 Ca2+) (1) Cell • Human CCR3-transformed K562 cells were used. The human CCR3-transformed K562 cells were maintained in RPMI-1640 supplemented with 10% FCS, 55 μM 2-mercaptoethanol (Cat.#21985-023, Life Technologies), 1 mM sodium pyruvate, 100 units/ml of penicillin G and 100 μg/ml of streptomycin and 0.4 mg/ml of Geneticin. Before the calcium mobilization assay, cells were pretreated with 5 mM sodium butyrate-containing the culture medium (2×10^5 cells/ml) for 20-24 hours to increase the expression of CCR3. (2) Calcium Mobilization Assay • Butyrate-pretreated cells were loaded with Fluo-3AM (Cat.#F-1242, Molecular Probes) in loading buffer (Hanks' solution Cat.#05906 Nissui, 20 mM HEPES pH 7.6, 0.1% BSA, 1 mM probenecid Cat.#P-8761 Sigma, 1 μM Fluo-3AM, 0.01% pluronic F-127 Cat.#P-6866 Molecular Probes) at a cell density of 1×10^7 cells/ml. Then, cells were washed with calcium assay buffer (Hanks' solution Cat.#05906 Nissui, 20 mM HEPES pH 7.6, 0.1% BSA, 1 mM Probenecid Cat.#P-8761 Sigma). The cell suspension (3.3×10^6 cells/ml) was added into 60 μl/well in the 96-well clear bottom black plate (Cat.#3904, Costar). Compounds, diluted (5-times concentration of the final concentration) with the calcium assay buffer, were added into 20 μl/well in the plate 10 minutes before assay. […]

| melting point | pIC50 (Human CCR3) | Structure (SMILES) |
| --- | --- | --- |
| 101 °C |  | Cc1cc(C)cc(Oc2ccc(C(=O)NCCC#N)cc2S(=O)(=O)N2CCNCC2)c1 (as salt: hydrochloride) [Example 22-1, N-(2-cyanoethyl)-4-(3,5-dimethylphenoxy)-3-(1-piperazinylsulfonyl)benzamide hydrochloride] |
| 121 °C |  | Cc1cc(C)cc(Oc2ccc(C(=O)NCCC(N)=O)cc2S(=O)(=O)N2CCNCC2)c1 (as salt: hydrochloride) [Example 22-2, N-[4-(3,5-dimethylphenoxy)-3-(1-piperazinylsulfonyl)benzoyl]-beta-alanineamide hydrochloride] |
| 125 °C |  | Cc1cc(C)cc(Oc2ccc(-c3nnnn3CCC#N)cc2S(=O)(=O)N2CCNCC2)c1 (as salt: hydrochloride) [Example 22-3, 3-{5-[4-(3,5-dimethylphenoxy)-3-(1-piperazinylsulfonyl)phenyl]-1H-tetraazol-1-yl}propanenitrile hydrochloride] |
| 213 °C |  | Cc1cc(C)cc(Oc2ccc(-c3nnn[nH]3)cc2S(=O)(=O)N2CCNCC2)c1 (as salt: hydrochloride) [Example 22-4, 1-{[2-(3,5-dimethylphenoxy)-5-(1H-tetraazol-5-yl)phenyl]sulfonyl}piperazine hydrochloride] |
| 284 °C |  | Cc1cc(C)cc(Oc2cc([N+](=O)[O-])ccc2S(=O)(=O)N2CCNCC2)c1 (as salt: hydrochloride) [Example 23-1, 1-{2-(3,5-dimethylphenoxy)-4-nitrophenylsulfonyl}piperazine hydrochloride] |
| > 84 °C (dec.) |  | Cc1cc(C)cc(Oc2cc(Br)cc(S(=O)(=O)N3CCNCC3)c2)c1 (as salt: hydrochloride) [Example 24-1, 1-{[3-bromo-5-(3,5-dimethylphenoxy)phenyl]sulfonyl}piperazine hydrochloride] |
| 220 °C |  | Cc1cc(C)cc(Oc2ccncc2S(=O)(=O)N2CCNCC2)c1 (as salt: hydrochloride) [Example 25-1, 1-{[4-(3,5-dimethylphenoxy)-3-pyridinyl]sulfonyl}piperazine hydrochloride] |
| 120 to 125 °C |  | Cc1cc(C)cc(Oc2ccc([N+](=O)[O-])cc2S(=O)(=O)N2CCNCC2)c1.O=C(O)C(F)(F)F [Example 1-3] |
| 125 °C | > 6.00 | COc1ccc(S(=O)(=O)N2CCNCC2)c(Oc2cc(C)cc(C)c2)c1.Cl [Example 1-49] |
| 181 °C | > 6.00 | COc1cc(Oc2cc(Cl)cc(Cl)c2)c(S(=O)(=O)N2CCNCC2)cc1[N+](=O)[O-].Cl [Example 1-50] |
| 136 °C | > 6.00 | Cc1cc(C)cc(Oc2cc(C)ccc2S(=O)(=O)N2CCNCC2)c1.Cl [Example 1-52] |
| 231 °C | > 6.00 | Cl.Cl.O=[N+]([O-])c1ccc(Oc2cncc(Cl)c2)c(S(=O)(=O)N2CCNCC2)c1 [Example 1-55] |
| 204 °C | > 6.00 | Cc1cc(C)cc(Oc2cccc(F)c2S(=O)(=O)N2CCNCC2)c1.Cl [Example 1-58] |
| 306 °C | > 6.00 | Cl.O=S(=O)(c1c(F)cccc1Oc1cc(Cl)cc(Cl)c1)N1CCNCC1 [Example 1-59] |
| 248 °C | > 6.00 | Cl.Nc1cccc(Oc2ccc([N+](=O)[O-])cc2S(=O)(=O)N2CCNCC2)c1 [Example 1-67] |
| 99 °C | > 6.00 | Cl.O=[N+]([O-])c1ccc(Oc2cccc(-c3ccccc3)c2)c(S(=O)(=O)N2CCNCC2)c1 [Example 1-68] |

| melting point | pIC50 (Human CCR3) | Structure (SMILES) |
| --- | --- | --- |
| 248 °C | > 6.00 | Cc1cc(Oc2ccc([N+](=O)[O-])cc2S(=O)(=O)N2CCNCC2)cc(C)c1C.Cl [Example 1-69] |
| 237 °C | > 6.00 | Cc1ccc(Oc2ccc([N+](=O)[O-])cc2S(=O)(=O)N2CCNCC2)cn1.Cl [Example 1-70] |
| 182 °C | > 6.00 | Cc1cc(O)cc(Oc2ccc([N+](=O)[O-])cc2S(=O)(=O)N2CCNCC2)c1.Cl [Example 1-71] |
| 168 °C | > 6.00 | Cl.O=[N+]([O-])c1ccc(Oc2ccc3c(c2)CCCC3)c(S(=O)(=O)N2CCNCC2)c1 [Example 1-72] |
| 297 °C | > 6.00 | Cl.O=[N+]([O-])c1ccc(Oc2c(F)c(F)c(F)c(F)c2F)c(S(=O)(=O)N2CCNCC2)c1 [Example 1-73] |
| 215 °C | > 6.00 | Cc1ccc([N+](=O)[O-])c(Oc2ccc([N+](=O)[O-])cc2S(=O)(=O)N2CCNCC2)c1.Cl [Example 1-75] |
| > 300 °C | > 6.00 | O=[N+]([O-])c1ccc(Oc2cc(Cl)cc(Cl)c2)c(S(=O)(=O)NC2CCNCC2)c1 [Example 1-78] |
| > 300 °C | > 6.00 | Cc1cc(C)cc(Oc2ccc([N+](=O)[O-])cc2S(=O)(=O)N2C(C)CNCC2C)c1.Cl (centres unmarked) [Example 1-94] |
| 148 to 151 °C | > 6.00 | NCC1CCN(S(=O)(=O)c2cc([N+](=O)[O-])ccc2Oc2cc(Cl)cc(Cl)c2)CC1 [Example 1-97] |
| 200 to 201 °C | > 6.00 | O=C(O)CCN1CCN(S(=O)(=O)c2cc([N+](=O)[O-])ccc2Oc2cc(Cl)cc(Cl)c2)CC1 [Example 1-98] |
| 217 to 218 °C |  | O=[N+]([O-])c1ccc(Oc2cc(Cl)cc(Cl)c2)c(S(=O)(=O)N2CCC(N3CCCC3)CC2)c1 [Example 4-1, 1-{[2-(3,5-dichlorophenoxy)-5-nitrophenyl]sulfonyl}-4-(1-pyrrolidinyl)piperidine] |
| 179 to 181 °C |  | N#Cc1ccc(Oc2cc(Cl)cc(Cl)c2)c(S(=O)(=O)N2CCNCC2)c1 [Example 6-4] |
| 186 to 187 °C |  | N#Cc1ccc(Oc2cc(Cl)cc(Cl)c2)c(S(=O)(=O)N2CCC(N3CCCC3)CC2)c1 [Example 6-5] |
| 164 to 165 °C |  | N#Cc1ccc(Oc2cc(Cl)cc(Cl)c2)c(S(=O)(=O)N2C[C@H]3CCCN[C@H]3C2)c1 [Example 13-6] |
| 262 °C |  | N#Cc1ccc(Oc2cc(Cl)cc(Cl)c2)c(S(=O)(=O)N2CCNCC2C(=O)O)c1 (centres unmarked) [Example 13-9] |
| 277 to 278 °C |  | Cl.N#Cc1ccc(Sc2cc(Cl)cc(Cl)c2)c(S(=O)(=O)N2CCCNCC2)c1 [Example 17-3] |
